Assay results taken from patent US20160120881A1, “USE OF BUFODIENOLIDES IN DIAGNOSING AND TREATING ESSENTIAL HYPERTENSION” (priority 2014, published 2016).

Key:
[1] = system: volume expansion induced hypertensive rats; test: Systolic blood pressure in volume expansion induced hypertensive rats (saline infusion, NDS); format: in vivo, rat; details: NDS rats given resibufogenin (NDSR) vs NDS; FIG. 1
Description: (§1) FIG. 1. Mean systolic blood pressure (BP) values in sham (SHM) animals, angiotensin-infused rats (ANG), angiotensin infused animals given resibufogenin (ANGR), normal rats rendered hypertensive by the infusion of saline (volume expansion induced hypertensive rats)(NDS), NDS rats given resibufogenin (NDSR).
(§2) This compound differs from MBG only in the absence of a hydroxyl group in the beta-5 position of the molecule. […] Current therapy of volume expansion hypertension involves the administration of a diuretic. RBG can be considered in place of the diuretic as the therapy of choice of volume expansion-mediated hypertension or can be utilized in combination with the diuretic so that smaller dosages of each agent could be utilized. The latter strategy can result in fewer side effects from either drug.

angiotensin-infused rats [2] = test: Systolic blood pressure in angiotensin-infused rats (ANG); format: in vivo, rat; details: angiotensin infused animals given resibufogenin (ANGR) vs ANG; FIG. 1
Description: as §1, §2

[3] = system: rodent brain contusion model; test: Rodent brain contusion model; format: in vivo; details: given 1 hour after the insult
Description: (§3) MBG is elevated in other syndromes such as preeclampsia and traumatic brain injury. It has been shown that the administration of the antagonist of MBG, resibufagenin (RBG) is therapeutically effective. […] RBG antagonizes MBG activity and may be an effective treatment for hypertension, ARDS, traumatic brain injury, and preeclampsia. Certain embodiments are directed to treating a hypertensive patient having elevated levels of MBG by administering an MBG antagonist or anti-MBG agent. In certain aspects the anti-MBG agent is resibufagenin (RBG).

[4] = system: preeclampsia in animal models; test: Preeclampsia animal models; format: in vivo
Description: as §3

[5] = system: volume expansion induced hypertensive rats; details: experimental animals, volume expansion-mediated hypertension (Danchuk et al. 2008); cited from earlier work
angiotensin-infused rats [6] = details: animals subjected to angiotensin excess (Danchuk et al. 2008); cited from earlier work
severe PPH in rats = details: cited from earlier work
[7] = two phase I human studies, dosages calculated to have beneficial effects on human PPH (Sidharta et al.); cited from earlier work
[8] = in vitro (Fedorova et al. 1997; Lopatin et al. 1999); cited from earlier work

For `C[C@]12CC[C@H](O)C[C@H]1CC[C@@H]1[C@@H]2CC[C@]2(C)[C@@H](c3ccc(=O)oc3)C[C@H]3O[C@]132` [resibufogenin, epoxy-3β-hydroxy-5β-bufa-20,22-dienolide], which “Mean systolic blood pressure (BP)” value [1] is on record?
Its value is “reduced blood pressure only in the volume expanded animals”.

And the “Mean systolic blood pressure (BP)” value (angiotensin-infused rats [2])?
The value was “only in the volume expanded animals”.

And the Tissue injury [3]?
The Tissue injury was “amelioration of tissue injury”.

What about the Preeclampsia [4] of the same compound?
Its Preeclampsia is “prevents preeclampsia”.

And the Blood pressure elevation [5]?
The Blood pressure elevation was “resolves blood pressure elevations”.

And the Elevated blood pressure (angiotensin-infused rats [6])?
Its Elevated blood pressure is “does not lower elevated blood pressure”.

Which Pulmonary arterial hypertension (severe PPH in rats; severe PPH (Kunita-Takanezawa et al. 2014)) does the source give for `CCCNS(=O)(=O)Nc1ncnc(OCCOc2ncc(Br)cn2)c1-c1ccc(Br)cc1` [macitentan] here?
The Pulmonary arterial hypertension was “reversed severe pulmonary arterial hypertension”.

What about the Adverse effects (severe PPH in rats; severe PPH) of the same compound?
Its Adverse effects is “no adverse effects”.

What about the Cardiac output (severe PPH in rats; severe PPH) of the same compound?
Its Cardiac output is “preserved cardiac output”.

What about the RV systolic pressure (severe PPH in rats; severe PPH) of the same compound?
Its RV systolic pressure is “lowered RV systolic pressure”.

And the Right ventricular hypertrophy (severe PPH in rats; severe PPH)?
Its Right ventricular hypertrophy is “reversed right ventricular hypertrophy”.

And the Adverse effects [7]?
Its Adverse effects is “no adverse effects of the drug were noted”.

For `C[C@]12CC[C@H](O)C[C@@]1(O)CC[C@@H]1[C@@H]2CC[C@]2(C)[C@@H](c3ccc(=O)oc3)C[C@H]3O[C@]132` [marinobufagenin (MBG), marinobufagenin], which Vasoconstrictor action [8] is on record?
The Vasoconstrictor action was “acts in vitro as a vasoconstrictor”.
